Marks after values point to notes of the source that are not given here.
Key:
[1] = test system: HIV-1 virus strain RF in CEM-SS cells; test: HIV-1 cytopathicity assay; format: cell-based; conditions: HIV-1RF
[2] = target: RNase H-deficient p66^EQ/p51 HIV-1 RT (Human immunodeficiency virus type 1 group M subtype B, UniProt P04585, E1065Q); test: DNA-dependent DNA polymerase assay, RNase H mutant p66^E478Q/p51; format: biochemical; conditions: inhibitor 20 µM
[3] = target: RNase H-deficient p66^DA/p51 HIV-1 RT (Human immunodeficiency virus type 1 group M subtype B, UniProt P04585, D1136A); test: DNA-dependent DNA polymerase assay, RNase H mutant p66^D549A/p51; format: biochemical; conditions: inhibitor 20 µM

**Q.** With `CCSCC(C)(O)[C@H]1CCc2c(c(C)cc(O)c(=O)c2O)C1` (mixture of isomers) [Compound 6, 2-(2-Ethylsulfanyl-1-hydroxy-1-methyl-ethyl)-5,7-dihydroxy-9-methyl-1,2,3,4-tetrahydrobenzocyclohepten-6-one] as the molecule, how does the “protection against the cytopathic effect of HIV (in words)” value (shortened to “protection against the cytopathic effect”) [1] read?
**A.** slight protection against cytopathicity

**Q.** How did the “protection against the cytopathic effect” value [1] turn out when “2,7-dihydroxy-4-isopropyl-cyclohepta-2,4,6-triene [β-Thujaplicinol, reference compound]” was run?
**A.** no protection against the cytopathic effect of HIV

**Q.** How did the “protection against the cytopathic effect” value [1] turn out when `Cc1cc(O)c(=O)c(O)c2c1C[C@@H](C(C)(O)CSCc1ccccc1)CC2` (mixture of isomers) [Compound 8, 2-(2-Benzylsulfanyl-1-hydroxy-1-methyl-ethyl)-5,7-dihydroxy-9-methyl-1,2,3,4-tetrahydrobenzocyclohepten-6-one] was run?
**A.** protection against the cytopathicity of the virus

**Q.** For `Cc1cc(O)c(=O)c(O)c2c1C[C@@H](C(C)(O)CSc1ccccc1)CC2` (mixture of isomers) [Compound 7, 5,7-Dihydroxy-2-(1-hydroxy-1-methyl-2-phenylsulfanyl-ethyl)-9-methyl-1,2,3,4-tetrahydrobenzocyclohepten-6-one], which “protection against the cytopathic effect” value [1] is on record?
**A.** protection against the cytopathicity of the virus

**Q.** Which “inhibition of DNA-dependent DNA polymerase activity (in words)” value [2] does the source give for `Cc1cc(O)c(=O)c(O)c2c1C[C@@H](C(C)(O)CNc1ccccc1)CC2` (mixture of isomers) [Compound 5, 5,7-Dihydroxy-2-(1-hydroxy-1-methyl-2-phenylamino-ethyl)-9-methyl-1,2,3,4-tetrahydrobenzocyclohepten-6-one] here?
**A.** significantly and consistently inhibited

**Q.** And the “inhibition of DNA-dependent DNA polymerase activity (in words)” value [3]?
**A.** significantly and consistently inhibited

**Q.** What about the “protection against the cytopathic effect” value [1] of the same molecule?
**A.** protection against the cytopathicity of the virus

**Q.** With `Cc1cc(O)c(=O)c(O)c2c1C[C@@H](C(C)O)CC2` (mixture of isomers) [Compound 13, 5,7-Dihydroxy-2-(1-hydroxy-ethyl)-9-methyl-1,2,3,4-tetrahydrobenzocyclohepten-6-one] as the molecule, how does the “protection against the cytopathic effect” value [1] read?
**A.** protection against the cytopathicity of the virus

**Q.** For `Cc1cc(O)c(=O)c(O)c2c1C[C@@H](C(C)(O)CN1CCCCC1)CC2` (mixture of isomers) [Compound 1, 5,7-Dihydroxy-2-(1-hydroxy-1-methyl-2-piperidin-1-yl-ethyl)-9-methyl-1,2,3,4-tetrahydro benzocyclohepten-6-one], which “In vitro therapeutic index (CC50/EC50)” value [1] is on record?
**A.** 4.9

**Q.** And the “protection against the cytopathic effect” value [1]?
**A.** protection against the cytopathicity of the virus

**Q.** For `Cc1cc(O)c(=O)c(O)c2c1CC(C(C)(O)CO)CC2` (stereo not drawn) [Compound 12, 2-(1,2-Dihydroxy-1-methyl-ethyl)-5,7-dihydroxy-9-methyl-1,2,3,4-tetrahydrobenzocyclohepten-6-one], which “protection against the cytopathic effect” value [1] is on record?
**A.** no protection against virus cytopathicity

**Q.** Which “protection against the cytopathic effect” value [1] does the source give for `Cc1cc(O)c(=O)c(O)c2c1C[C@@H](C(C)(O)CNCc1ccccc1F)CC2` (mixture of isomers) [Compound 4, 2-[2-(2-Fluoro-benzylamino)-1-hydroxy-1-methyl-ethyl]-5,7-dihydroxy-9-methyl-1,2,3,4-tetrahydrobenzocyclohepten-6-one] here?
**A.** no protection against virus cytopathicity

**Q.** What does the source list for `CCN(CC)CC(C)(O)[C@H]1CCc2c(c(C)cc(O)c(=O)c2O)C1` (mixture of isomers) [Compound 3, 2-(2-Diethylamino-1-hydroxy-1-methyl-ethyl)-5,7-dihydroxy-9-methyl-1,2,3,4-tetrahydrobenzocyclohepten-6-one]?
**A.** protection against the cytopathic effect of HIV (in words) [1]: slight protection against cytopathicity; Viral Replication EC50 column, protective effect class ([1]; highest concentration 50 µM): < 50% ^c

**Q.** How did the “protection against the cytopathic effect” value [1] turn out when `Cc1cc(O)c(=O)c(O)c2c1C[C@@H](C(C)NCc1ccccc1)CC2` (mixture of isomers) [Compound 14, 2-(1-Benzylamino-ethyl)-5,7-Dihydroxy-9-methyl-1,2,3,4-tetrahydrobenzocyclohepten-6-one] was run?
**A.** protection against the cytopathicity of the virus

**Q.** With `CCS(=O)(=O)CC(C)(O)[C@H]1CCc2c(c(C)cc(O)c(=O)c2O)C1` (mixture of isomers) [Compound 9, 2-(2-Ethanesulfonyl-1-hydroxy-1-methyl-ethyl)-5,7-dihydroxy-9-methyl-1,2,3,4-tetrahydrobenzocyclohepten-6-one] as the molecule, how does the “protection against the cytopathic effect” value [1] read?
**A.** slight protection against cytopathicity

**Q.** For `Cc1cc(O)c(=O)c(O)c2c1C[C@@H](C(C)(O)Cn1ccnc1)CC2` (mixture of isomers) [Compound 2, 5,7-Dihydroxy-2-(1-hydroxy-2-imadazol-1-yl-1-methyl-ethyl)-9-methyl-1,2,3,4-tetrahydro benzocyclohepten-6-one], which “protection against the cytopathic effect” value [1] is on record?
**A.** protection against the cytopathicity of the virus

**Q.** How did the “protection against the cytopathic effect” value [1] turn out when `C=C(C)[C@H]1CCc2c(c(C)cc(O)c(=O)c2O)C1` [Manicol, 5,7-dihydroxy-2-isopropenyl-9-methyl-1,2,3,4-tetrahydro-benzocyclohepten-6-one, reference compound] was run?
**A.** no protection against the cytopathic effect of HIV

— paper PMC3133734 (Journal of medicinal chemistry, 2011)
